The target in series [1] is hERG (Homo sapiens (Human), UniProt Q12809). Nature of the series: hERG Ion Channel binding assay (3H astemizole displacement). The settings on record: human, membranes of HEK293 cells stably expressing hERG, pH 7.4, probe 3H astemizole (1.5 nM); 30 μM; displacement of 3H astemizole, hERG-HEK293 membranes. The method, then: (§1) The activity of the compounds against the hERG ion channel was tested using a binding assay in stably transfected Human Embryonic Kidney cells (hERG-HEK293). hERG-HEK293 cells were cultured in MEM medium (Invitrogen)+10% FBS, glutamine and non-essential amino acids at 37° C. To prepare membranes, cells were homogenised on ice, centrifuged at 650×g for 10 minutes at +4° C., and the resulting supernatant centrifuged at 48000×g for 10 minutes at +4° C. The pellet was resuspended in ice-cold 50 mM Tris-HCl buffer, 5 mM KCl (pH 8.5) and stored frozen in aliquots until use.
Sequence of hERG (Q12809 whole entry): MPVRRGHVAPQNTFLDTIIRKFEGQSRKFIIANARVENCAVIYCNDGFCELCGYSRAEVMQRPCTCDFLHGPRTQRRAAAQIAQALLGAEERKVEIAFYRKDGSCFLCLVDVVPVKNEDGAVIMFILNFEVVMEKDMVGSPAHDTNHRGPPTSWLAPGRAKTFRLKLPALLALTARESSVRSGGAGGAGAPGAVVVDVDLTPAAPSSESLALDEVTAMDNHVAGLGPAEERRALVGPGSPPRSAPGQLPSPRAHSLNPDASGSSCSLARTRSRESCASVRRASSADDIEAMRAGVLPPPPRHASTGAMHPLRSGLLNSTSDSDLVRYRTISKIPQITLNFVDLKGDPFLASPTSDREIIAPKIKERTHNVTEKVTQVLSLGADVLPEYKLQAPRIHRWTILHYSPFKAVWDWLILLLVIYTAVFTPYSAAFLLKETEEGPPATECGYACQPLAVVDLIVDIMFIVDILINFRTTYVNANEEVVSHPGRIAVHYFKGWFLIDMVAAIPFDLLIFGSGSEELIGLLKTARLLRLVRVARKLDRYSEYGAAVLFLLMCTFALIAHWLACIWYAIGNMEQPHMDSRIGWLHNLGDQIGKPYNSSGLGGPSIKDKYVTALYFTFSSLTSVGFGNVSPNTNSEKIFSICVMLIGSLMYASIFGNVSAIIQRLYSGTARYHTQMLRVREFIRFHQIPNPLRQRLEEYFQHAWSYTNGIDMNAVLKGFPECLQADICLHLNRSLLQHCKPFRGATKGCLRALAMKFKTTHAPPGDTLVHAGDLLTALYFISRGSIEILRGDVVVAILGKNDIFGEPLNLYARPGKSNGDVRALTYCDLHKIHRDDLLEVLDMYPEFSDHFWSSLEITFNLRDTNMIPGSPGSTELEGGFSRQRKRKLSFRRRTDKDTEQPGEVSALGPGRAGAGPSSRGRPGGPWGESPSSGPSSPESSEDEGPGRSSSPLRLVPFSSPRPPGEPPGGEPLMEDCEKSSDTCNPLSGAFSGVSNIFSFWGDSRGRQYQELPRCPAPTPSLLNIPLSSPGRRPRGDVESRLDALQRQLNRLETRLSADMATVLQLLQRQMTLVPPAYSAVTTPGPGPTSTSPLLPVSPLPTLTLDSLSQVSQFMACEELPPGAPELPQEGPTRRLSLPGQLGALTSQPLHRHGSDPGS
(§2) For binding assays, membranes were thawed, re-suspended in assay buffer (10 mM HEPES pH 7.4, 0.1% BSA, 5 mM potassium chloride, 0.8 mM magnesium chloride, 130 mM sodium chloride, 1 mM sodium-EGTA, 10 mM glucose) and incubated with ^3H astemizole (1.5 nM), and with or without test compound at 25° C. for 60 minutes. Binding was determined following filtration of the membranes and washing in Tris-HCl buffer by scintillation counting of ^3H astemizole.
(§3) The degree of binding of compounds to the hERG ion channel (%) was obtained by measuring the binding of ^3H astemizole and its displacement by test compound. A value of 0% indicates no binding and a value of 100% indicates complete displacement of the radiolabelled ligand.
(Block of hERG is tested as a sign of cardiac risk.)

The target in series [2] is hERG ion channel (Homo sapiens (Human), UniProt Q12809). Described as above. The method, then: as §1, §2, §3
Sequence of hERG ion channel (Q12809 whole entry): as above
Series [3] has as its system Thp1 human monocytic cells. Put plainly: Thp1 Monocyte ATP Production Assay (ATPlite). The format is cell-based. Particulars: Homo sapiens, THP-1, Thp1 cells, 24 hour incubation, mean of 2 independent experiments. The method, then:
In vitro potency of test compounds was determined by incubation with Thp1 human monocytic cells and subsequent determination of Adenosine TriPhosphate (ATP) levels using firefly luciferase.
ATP is present in all metabolically active cells. When cells lose integrity, their ability to synthesise ATP is rapidly lost. […] See, e.g., Kang et al., 2015; Jiang et al., 2013. Levels of ATP can be monitored using a system based on firefly (Photinus pyralis) luciferase (see, e.g., Auld et al., 2009) using commercially available kits. A system known as ATPlite™ was using to measure effects of the test compounds on cellular viability in vitro. This one-step assay system is an adenosine triphosphate (ATP) monitoring system based on the production of light caused by the reaction of ATP from the cells with added luciferase and D-luciferin, as illustrated in the reaction scheme below:
Thp1 cells were plated at 112500 cells per well in 125 μL RPMI-1640 (no glucose) with 1% FBS in 96-well plates. Test compounds were prepared as 100 mM solutions in DMSO. These stock solutions were diluted in DMSO and then diluted 1000× in culture medium (RPMI) before being added directly to the wells so as to give the desired final compound concentration. After a 24 hour incubation at 37° C./5% CO2, ATPLite™ (Perkin Elmer) was added to each well (1:10 v/v, 10 μL). The plate was then incubated at room temperature for 5 minutes and the emitted light was quantified on Viewlux with a measurement time of 0.3 seconds and binning 4×4.
The average results for each test compound were expressed as a percent (%) of the average control value reflecting cell viability. The average values across the concentrations tested were then plotted and the IC50 for was calculated by fitting the data to a 4-parameter IC50 equation using software from Graf it (Erithacus Software). Each experiment was repeated twice and the data are presented as the mean IC50 from both experiments.
(In general: ATP-based viability assays read luminescence as a measure of living cells.)

Series [4] concerns human hepatocytes. Nature of the series: Human Hepatocyte Stability. The format is in vitro ADME. The settings on record: human hepatocytes. As for the experimental part: (§4) Metabolic stability of test compounds was measured by determination of the rate of disappearance of the compound when incubated in the presence of human hepatocytes, a primary source of the most important enzymes (cytochrome P450s) involved in drug metabolism. Study of drug stability in the presence of primary hepatocytes is accepted as a valuable model permitting rapid prediction of in vivo drug stability.
(§5) Human hepatocytes were obtained from a commercial source and viability was assessed using a trypan blue solution prior to use. Test compounds (final concentration 1 μM, 0.1 DMSO, 0.9% acetonitrile) or a marker (diclofenac or diltiazem, final assay concentration 1 μM, 0.1% DMSO, 0.9% acetonitrile) were incubated with pooled hepatocytes for a 60 minute period and samples removed at up to 6 time points and analysed by LC-MS/MS for the presence/amount of test compounds.
(§6) Each compound was incubated for 0, 5, 15, 30, 45, or 60 minutes. The reactions were stopped by the addition of methanol containing an internal standard (1 μM Tolbutamide) at the appropriate time points, mixed and placed at −20° C. for 1 hour to quench and allow protein to precipitate. All samples were centrifuged (2500× g, 20 minutes, 4° C.). The aliquots were analysed using LC-MS/MS. Reactions were performed in duplicate at 37° C.
(§7) Data were processed, and the results plotted as In(concentration) vs. time. The elimination rate constant (slope of the regression line, k) was calculated using the following formula, where C(t) is the concentration at time t and C(0) is the starting concentration:
(§8) The half-life (t1/2) was calculated using the following formula: […]
(§9) The intrinsic clearance (Clint) was calculated using the following formula, where [cell] is the hepatocyte concentration in the assay: […]

The nature of series [5]: Human Hepatocyte Stability. The class given is in vitro ADME. The settings on record: pooled human hepatocytes, 1 μM, 60 minute incubation; for half-life at 1 μM: read-out: Human t1/2. The method, then: as §4, §5, §6, §7, §8, §9
The nature of series [6]: Aqueous solubility in FaSSIF. The format is physicochemical. The settings on record: for solubility at 16 h: kinetic from dmso stock, pH 6.5, 16 hours, room temperature. The method, then: Aqueous solubility was measured by equilibration of compounds with fasted state simulated intestinal fluid (FaSSIF) and quantified spectrophotometrically.
Preparation of blank FaSSIF: 0.21 g of sodium hydroxide (NaOH) pellets, 1.97 g of dihydrogen sodium phosphate (NaH2PO4.2H2O) and 3.09 g of sodium chloride (NaCl) were dissolved in 400 mL of deionised water. The pH was adjusted to 6.5 using 1 M hydrochloric acid and further deionised water added to a final volume of 500 mL.
Preparation of FaSSIF: 0.056 g of SIF Powder (containing sodium taurocholate and lecithin) (Pharses A G) was dissolved in 25 mL of blank FaSSIF and stirred until the powder was completely dissolved. The solution was allowed to stand for 2 hours during which it became opalescent; it was used within 24 hours. The final solution composition was characterised as follows: • Sodium taurocholate: 3 mM • Lecithin: 0.75 mM • Osmolarity: 270±10 mOsmol • pH: 6.5
The optical density was measured at the end of the incubation period for test compounds and a reference used to determine solubility. In brief, two samples were prepared for each determination: a reference sample consisting of a stock solution of test compound in DMSO diluted in system solution (a phosphate free, low absorption buffer) and propanol; and a test sample (prepared in triplicate) consisting of 0.5 mL FaSSIF spiked with test compound at 0.2 mM. Each sample was incubated at room temperature for 16 hours with constant shaking at 250 rpm. At the end of the incubation period, 0.3 mL of each sample was filtered through a pION filter plate (PION, Woburn MA), diluted 1:1 with propanol and scanned using UV spectrophotometry at Amax ([…]) using a Spectra Max Plus—Version 2.1000 (Molecular Devices, Sunnyvale, CA), with pSOL Explorer solubility determination software (pION, Woburn, MA).
FaSSIF solubility was calculated using the following formula:
[formula] • wherein: • “OD” is the optical density; • “Cr” is the concentration of the reference (33.4 μM); and • “molecular weight” is for the test compound (e.g., 381.44 for ABD735).

The subject of series [7] is collagen-induced arthritis in DBA/1j mice. Nature of the series: Mouse Collagen-Induced Arthritis. The format is in vivo. Particulars: 10 mg/kg/day, once daily for 14 days, oral gavage; arthritic index vs control. As for the experimental part: Seven- to eight-week-old male DBA/1j mice were used for all procedures. Animals were housed in groups of 10, and were maintained at 21° C.±2° C. on a 12-hour light/dark cycle with food and water ad libitum. Complete Freund's adjuvant (CFA) was prepared by emulsifying bovine type II collagen at 4 mg/mL with a 4 mg/mL suspension of Mycobacterium tuberculosis H37Ra in Incomplete Freund's Adjuvant (IFA) (0.85 mL paraffin oil and 0.15 mL mannide monooleate) in a 1:1 (v/v) ratio. All mice were immunised subcutaneously with 200 μg of bovine type II collagen in CFA. 21 days later, all mice were immunised subcutaneously with 100 μg of bovine type II collagen in IFA. The mice started to develop signs and symptoms of arthritis following the ‘booster’ immunisation.
For macroscopic assessment of arthritis, the following signs were monitored in each paw of each mouse three times per week and summed to generate the Arthritic Index (A1) (the maximum A1 for one animal is 16): • 0=no visible effects of arthritis. • 1=oedema and/or erythema of 1 digit. • 2=oedema and/or erythema of 2 digits. • 3=oedema and/or erythema of more than 2 digits. • 4=severe arthritis of entire paw and digits.
Animals were sorted into treatment groups with a mean arthritic index of 2.5 and then dosed once daily for 14 days with compound: by oral gavage for test compounds, or by subcutaneous injection at a dose of 10 mg/kg for the positive control, etanercept. After completion of the experiment, the mice were sacrificed.
The data were analysed by generating an average of the arthritic index across each treatment group. The mean arthritic index was then compared to the arthritic index of control (untreated) animals using the following formula to generate a percentage inhibition of disease.

Values after ≈ are worked out from the molar mass of the structure shown.

The inhibition is the share of the control response that was lost under treatment. Lower therefore signals little suppression. For orientation: IC50 means the concentration at which inhibition is half-maximal. Higher therefore signals weaker potency. By hepatocyte CLint is commonly meant a measure of how fast metabolising enzymes remove a compound, apart from limits set by blood flow. Read a high hepatocyte CLint as rapid turnover. For orientation: solubility means the concentration that dissolves in the medium under given conditions. Low readings indicate little dissolved substance, high ones much dissolved substance.

On to `CC(=O)N1CCC(C(C)(C)S(=O)(=O)c2ccc(-c3ccc(F)cc3F)cc2)CC1` [NASMP-18, 1-(4-(2-((2′,4′-Difluoro-[1,1′-biphenyl]-4-yl)sulfonyl)propan-2-yl)piperidin-1-yl)ethan-1-one], for which the inhibition at 60 min, 30 µM in series [1] turned out to be 14%. In addition, in series [2], the “cardiac safety profile, hERG (in words)” value is “particularly positive profile”. The IC50 in series [3] (8-point concentration range from 100 μM to 100 nM) is 28.5 µM. In addition, in series [4], the “metabolic stability (in words)” value is recorded as “exceptionally good stability”. In series [5], the hepatocyte CLint at 1 μM was found to be 3.8 µL/min/1e6 cells and the half-life at 1 μM worked out at 5.87 h. The compound also yielded a solubility at 16 h in series [6] of 39 µg/mL (≈ 92.5 µM).

For the compound `C[C@]1(O)CC[C@@H](NS(=O)(=O)c2ccc(-c3ccc(Cl)cc3C#N)cc2)CC1` [HMC-C-01-B], the “% inhibition of disease” value in series [7] was 26%.

`CC(=O)N1CCC(C2(S(=O)(=O)c3ccc(-c4ccc(F)cc4F)cc3)CC2)CC1` [NASMP-21, 1-(4-(1-((2′,4′-Difluoro-[1,1′-biphenyl]-4-yl)sulfonyl)cyclopropyl)piperidin-1-yl)ethan-1-one] registered an inhibition at 60 min, 30 µM in series [1] of 1%. In addition, the “cardiac safety profile, hERG (in words)” value in series [2] is reported as “particularly positive profile”. It took 6.1 µM to reach half-maximal inhibition in series [3] (9-point concentration range from 10 μM to 10 nM) (IC50). In series [5], the hepatocyte CLint at 1 μM was determined as 13.4 µL/min/1e6 cells and the half-life at 1 μM was found to be 1.74 h. In addition, in series [6], the “solubility (in words)” value is given as “particularly good solubility” and the concentration in solution (solubility at 16 h) was 71 µg/mL (≈ 169 µM).

The values above are taken from US12162836B2, “N-acyl-{4-[(4-aryl-phenyl)sulfonylmethyl]piperidine} compounds and their therapeutic use” (Modern Biosciences Limited, priority 2019, dated 2024).
